Drawing on BindingDB's records for doi:10.7270/Q2BR8QM3 (Nmmlsc, 2008), this text covers EC50 for 45 compounds.

Structures can show the parent of a compound that is named as a salt.

The target in the first assay is T1, Bcl-2-like protein 2 (Homo sapiens, UniProt Q92843).
T1 sequence (Q92843 whole entry): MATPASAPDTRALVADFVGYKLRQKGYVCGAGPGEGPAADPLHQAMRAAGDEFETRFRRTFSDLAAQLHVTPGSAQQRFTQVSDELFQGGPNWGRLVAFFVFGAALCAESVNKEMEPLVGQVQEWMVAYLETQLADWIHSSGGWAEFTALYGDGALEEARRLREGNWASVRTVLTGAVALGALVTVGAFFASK
Description: modulators of Bim-Bcl-W protein interaction, dose response, biochemical, multiplexed, bead-based flow cytometry, fluorescence (AID 1330).
Conditions: not given
For orientation: Flow cytometry measures light scatter and fluorescence of single cells or particles in a stream.
The compound `O=C(Nc1cccc(C(F)(F)F)c1)c1ccc2nc(-c3ccco3)c(-c3ccco3)nc2c1` [SMR000142217] came in with an EC50 of 9.02 µM. Turning to `COc1ccc(CC(=O)Nc2ccc(-c3nc4cc(C)ccc4o3)c(O)c2)cc1OC` [2-(3,4-dimethoxyphenyl)-N-[(4Z)-3-keto-4-(5-methyl-3H-1,3-benzoxazol-2-ylidene)cyclohexa-1,5-dien-1-yl]acetamide], the EC50 is 10.1 µM. On the same count and under the same terms, the figure for `COc1cccc(CN=Nc2nn3cnnc3c3ccccc23)c1` [N-[1-(3-Methoxy-phenyl)-meth-(E)-ylidene]-N'-[1,2,4]triazolo[3,4-a]phthalazin-6-yl-hydrazine] is 2.43 µM; for `CCOC(=O)C1CCN(C(=O)Nc2ccc3nc(-c4ccco4)c(-c4ccco4)nc3c2)CC1` [MLS000113285] it is 4.93 µM. `c1ccc(Nc2cccc(Nc3ccccc3)n2)cc1` [N,N'-diphenyl-2,6-pyridinediamine] showed an EC50 of 2.58 µM.

For `COCCN=c1scc(-c2ccco2)n1N=Cc1ccc(O)c(O)c1O`, the 50% effective concentration (EC50) amounted to 1.81 µM. The same measure, in the same setting: in the case of `COc1cc(C=NNC(=O)CN(Cc2ccco2)S(=O)(=O)c2ccccc2)ccc1O` [N-(2-furanylmethyl)-N-[2-[[(E)-(3-methoxy-4-oxo-1-cyclohexa-2,5-dienylidene)methyl]hydrazo]-2-oxoethyl]benzenesulfonamide] it was 15.3 µM; in that of `O=C(NCc1ccccc1)c1ccc2nc(-c3ccco3)c(-c3ccco3)nc2c1` [2,3-bis(furan-2-yl)-N-(phenylmethyl)quinoxaline-6-carboxamide], 6.03 µM.

Compound `Cc1cc(N)ccc1N1CCCC1` [3-methyl-4-(1-pyrrolidinyl)aniline;hydrochloride] yielded an EC50 of 3.96 µM. `O=C1C=CC(C=NNC(=O)C(=Cc2ccc([N+](=O)[O-])cc2)NC(=O)c2ccccc2)C(O)=C1O` (stereo not given) [MLS000530401] came in with an EC50 of 4.76 µM. Same read-out and setting: the figure for `CN1CCc2cccc3c2[C@@H]1Cc1ccc(O)c(O)c1-3` is 9.95 µM; for `COc1cc(C2Nc3cccc4cccc(c34)N2)cc(OC)c1O` [4-(2,3-dihydro-1H-perimidin-2-yl)-2,6-dimethoxyphenol] it is 3.25 µM. The same measure, in the same setting: in the case of `CNCc1ccccc1Sc1ccc(O)c(O)c1` [SMR000230497] it was 42.4 µM; in that of `O=[N+]([O-])c1ccc(N=NCc2ccc(O)c(O)c2O)c(S(=O)(=O)N2CCOCC2)c1` [MLS000336720], 3.52 µM.

The same assay, now with this note: inactive by the depositor's call.
In turn, `COc1ccc(-n2c(=O)c3ccccc3c3ccccc3c2=O)c(OC)c1` came in with an EC50 of 16.3 µM. On to `c1ccc(-c2nc(N3CCCCCC3)c3ccccc3n2)nc1` [SMR000046752], for which the EC50 came to 21.7 µM.

The compound `COc1cc2nc(=S)[nH]c(NCC3CCCO3)c2cc1OC` (stereo not given) [6,7-dimethoxy-4-(2-oxolanylmethylamino)-1H-quinazoline-2-thione] yielded a 50% effective concentration (EC50) of 4.62 µM.

`O=C(CSc1ccc2nnc(-c3ccccn3)n2n1)Nc1nccs1` [2-[[3-(2-pyridinyl)-[1,2,4]triazolo[4,3-b]pyridazin-6-yl]thio]-N-(2-thiazolyl)acetamide] yielded an EC50 of 14.1 µM. The same measure, in the same setting: in the case of `COc1ccc(CCNC(=O)c2ccc3nc(-c4ccco4)c(-c4ccco4)nc3c2)cc1OC` [N-[2-(3,4-dimethoxyphenyl)ethyl]-2,3-di-2-furylquinoxaline-6-carboxamide] it was 12.2 µM; in that of `O=C(NC1=C(Nc2ccc(Cl)cc2)C(=O)c2ccccc2C1=O)c1ccccc1`, 10.1 µM; in that of `CN(N=C/C=C/c1ccccc1)C1=NS(=O)(=O)c2ccccc21` [(1E,2E)-3-phenylacrylaldehyde (1,1-dioxido-1,2-benzisothiazol-3-yl)(methyl)hydrazone], 3.67 µM.

Compound `O=C(Nc1cccc(Cl)c1)Nc1ccnc(-c2cccnc2)n1` [SMR000337179] returned an EC50 of 1.59 µM. `CCN(CC)c1ccc(-c2nn3c(-c4cccnc4)nnc3s2)cc1` showed an EC50 of 12 µM.

For the compound `CCOc1cccc(CNc2ccc(O)cc2)c1OCc1ccc(Cl)cc1` [4-[[2-[(4-chlorophenyl)methoxy]-3-ethoxyphenyl]methylamino]phenol], the half-maximal effective concentration (EC50) turned out to be 10.2 µM.

On to `Oc1ccc(NCc2ccccc2OCc2ccccc2)cc1` [SMR000231540], for which the EC50 is 2.98 µM. On the same count and under the same terms, in the case of `Cc1cc2n(c1)CCn1c(C)ccc1-2` [MLS000104384] it was 13.6 µM; in that of `CC(C)(C)NC(=O)COc1ccc(CNc2ccc3[nH]c(O)nc3c2)cc1` [N-tert-butyl-2-[4-[[(2-oxidanylidene-1,3-dihydrobenzimidazol-5-yl)amino]methyl]phenoxy]ethanamide], 6.29 µM.

`CN(N=Cc1cccnc1)C1=NS(=O)(=O)c2ccccc21` [SMR000207578] registered a concentration giving a half-maximal response (EC50) of 17.3 µM.

In the case of `CN(N=Cc1ccncc1)C1=NS(=O)(=O)c2ccccc21` [isonicotinaldehyde (1,1-dioxido-1,2-benzisothiazol-3-yl)(methyl)hydrazone], a half-maximal response (EC50) required 2.73 µM.

Turning to `O=C(/C=C\c1ccc(-c2ccccc2)o1)c1ccccc1` [(Z)-1-phenyl-3-(5-phenyl-2-furanyl)-2-propen-1-one], the EC50 is 10.6 µM. `COCCNC(=S)Nc1cc(OC)c(OC)cc1C#N` [1-(2-cyano-4,5-dimethoxy-phenyl)-3-(2-methoxyethyl)thiourea]: the EC50 came out at 14.5 µM. As for `Cc1cc(-c2nnc3n2N=C(c2ccc(-c4ccccc4)cc2)CS3)[nH]n1` [MLS000082991], the EC50 worked out at 7.58 µM. As to `CC(=O)c1ccc(NC(=O)c2ccc3nc(-c4ccco4)c(-c4ccco4)nc3c2)cc1` [N-(4-acetylphenyl)-2,3-di-2-furyl-6-quinoxalinecarboxamide], a half-maximal response (EC50) required 3.97 µM. Compound `O=C1c2ccccc2-c2onc3ccc(N4CCCC4)c1c23` [SMR000279741] registered an EC50 of 10.9 µM.

Regarding `O=C(Nc1ccccc1)c1ccc2nc(-c3ccco3)c(-c3ccco3)nc2c1` [2,3-di-2-furyl-N-phenyl-6-quinoxalinecarboxamide], the EC50 came to 18.2 µM. For the compound `COc1ccc(C2=Nn3c(nnc3-c3ccco3)SC2)cc1OC` [6-(3,4-Dimethoxy-phenyl)-3-furan-2-yl-7H-[1,2,4]triazolo[3,4-b][1,3,4]thiadiazine], the response was half-maximal at 4.24 µM (EC50). Take `COc1cc(OC)c([N+](=O)[O-])cc1[CH+][N-]NC(=O)c1ccncc1` [SMR000306621]: it took 25.7 µM to reach a half-maximal effect (EC50).

In turn, `CCOC(=O)c1nc(Nc2ccc(C(=O)OC)cc2)c2ccccc2n1` [ethyl 4-(4-methoxycarbonylanilino)quinazoline-2-carboxylate] displayed an EC50 of 16.7 µM. `CCN(CC)c1ccc(Nc2nc(N3CCOCC3)c3ccccc3n2)cc1` [4-N,4-N-diethyl-1-N-(4-morpholin-4-ylquinazolin-2-yl)benzene-1,4-diamine] came in with an EC50 of 4.71 µM. As to `Fc1ccc(C2=Nc3cccc4cccc(c34)N2)cc1` [MLS000687139], the midpoint of the response, the EC50, lay at 9.76 µM.

In turn, `O=C(Nc1ccc2nc(-c3ccco3)c(-c3ccco3)nc2c1)N1CCN(c2ccccn2)CC1` returned an EC50 of 14.9 µM.

With `COc1ccc(/C=C/C(=O)c2cc(Br)ccc(=O)c2O)cc1` [MLS000702099], the concentration for a half-maximal effect (EC50) is 27.5 µM.

`CCOC(=O)c1ccc(Nc2nc(C(=O)OCC)nc3ccccc23)cc1`: the EC50 was 2.67 µM.

The compound `COc1cc2nc(=S)[nH]c(NCCCOC(C)C)c2cc1OC` showed an EC50 of 9 µM. `Cc1cccc(C(=O)/N=c2\c(C#N)cc3c(=O)n4cccc(C)c4nc3n2Cc2ccco2)c1` [N-[3-cyano-1-(furan-2-ylmethyl)-10-methyl-5-oxodipyrido[3,4-c:1',2'-f]pyrimidin-2-ylidene]-3-methylbenzamide] returned a 50% effective concentration (EC50) of 41.3 µM.

Broadly, the EC50 is the concentration at which the effect is half-maximal. A lower EC50 goes with higher potency in that assay.
